Measured values taken from US20110217394A1, “Iridoid Based Formulations” (priority 2000, published 2011).

How the values were obtained:
E. coli PQ37 [1] = assay: Anti-genotoxicity test (SOS-chromotest with 4NQO, Example Three); format: cell-based; conditions: for reduction in genotoxicity: 250 μg iridoid plus 1.25 μg mL^-1 4NQO; for induction factor of 4NQO plus iridoid compared with vehicle blank: 250 μg mL^-1 iridoid plus 1.25 μg mL^-1 4NQO
Protocol: The primary DNA damage test was performed again, similar to the method described above. […] Induction factors were calculated in the same manner as described above.

E. coli PQ37 [2] = assay: Primary DNA damage test (SOS-chromotest); format: cell-based; conditions: for mean induction factor: 1000 μg mL^-1, less than two indicates absence of genotoxic activity; for induction of SOS repair: all concentrations tested, 7.81-1000 μg mL^-1
Protocol: The SOS-chromotest in E. coli PQ37 was used to determine the potential for DAA and AA to induce primary DNA damage. This test was carried out according to the previously developed method (Fish et al., 1987). […] E. coli PQ37 was incubated in LB medium in a 96-well plate at 37° C. in the presence of DAA or AA for 2 hours. The DAA and AA concentrations tested were 7.81, 15.6, 31.2, 62.5, 125, 250, 500, and 1000 μg mL^−1. Samples were evaluated in triplicate. Following incubation with the samples, 5-bromo-4-chloro-3-indolyl-β-D-galactopyranoside was added to the wells to detect β-galactosidase enzyme activity, which is induced during SOS repair of damaged DNA. Nitrophenyl phosphate is also added to the wells to measure alkaline phosphatase activity, an indicator of cell viability. The samples were again incubated and the absorbances of the samples, blanks and controls were measured at 410 and 620 nm with a microplate reader. […] The induction factor of each material was calculated by dividing the absorbance of the sample at 620 nm by that of the blank, while also correcting for cell viability. Induction factors less than two indicate an absence of genotoxic activity.

[3] = HPLC-PDA quantitation of iridoids (DAA, AA), with method validation, precision and stability assays; conditions: fresh noni juice; for Amount detected, Inter-day: inter-day precision and stability assay over 3 consecutive days; for Amount detected, Day 1 / Amount detected, Day 2 / Amount detected, Day 3: intra-day precision and stability assay; for Amount detected, Day 1: n = 3, Day 1; for Amount detected, Day 2: n = 3, Day 2; for Amount detected, Day 3: n = 3, Day 3
Excerpt: Acetonitrile (MeCN), methanol (MeOH), and water (H2O) of HPLC grade were obtained from Sigma-Aldrich (St. Louis, Mo., USA). Formic acid of analytical grade was purchased from Spectrum Chemical Mfg. Corp. (New Brunswick, N.J., USA). The chemical standard deacetylasperulosidic acid (DAA, 1) and asperulosidic acid (AA, 2) were isolated from noni fruits in our laboratory. […] They were accurately weighed and then dissolved in an appropriate volume of MeCN to produce corresponding stock solutions. The working standard solution of 1 and 2 for the calibration curve was prepared by diluting the stock solution with MeOH in seven concentration increments ranging from 0.00174-1.74 and 0.0016-0.80 mg/mL, respectively. All stock and working solutions were maintained at […] in a refrigerator. The calibration curves of standards were plotted after linear regression of the peak areas versus concentrations.
(§1) Tahitian noni fruit puree as used in this example is the mashed whole fruit, excluding seeds and pericarp. The fruits were originally collected from the Tahitian Islands. One gram of the puree was diluted with 5 mL of H2O—MeOH (1:1) and mixed thoroughly. The solution was then filtered through a nylon microfilter (0.45-μm pore size); the solution was collected into a 5 mL volumetric flask for HPLC analysis. Four batches of noni puree were analyzed in the experiments. Voucher specimens of the noni fruit puree are deposited in our lab. To test iridoid stability, a DAA solution of 0.5 mg/mL was prepared with MeOH. This solution was heated in a water-bath at 90° C. for 1 min, cooled to room temperature, and analyzed by HPLC.
Chromatographic separation was performed on a Waters 2690 separations module coupled with 996 PDA detectors, and equipped with an Atlantis C18 column (4.6 mm×250 mm; 5 Waters Corporation, Milford, Mass., USA). The pump was connected to two mobile phases: A; MeCN, and B; 0.1% formic acid in H2O (v/v), and eluted at a flow rate of 0.8 mL/min. The mobile phase was programmed consecutively in linear gradients as follows: 0-5 min, 0% A; and 40 min, 30% A. The PDA detector was monitored in the range of 210-400 nm (235 nm was selected for quantitative analysis). The injection volume was 10 μL for each of the sample solutions. The column temperature was maintained at 25° C. Data collection and integration were performed using Waters Millennium software revision 32.
The limits of detection (LOD) and quantitation (LOQ) were defined as the lowest concentrations of analytes in a sample that can be detected and quantified. These LOD and LOQ limits were determined on the basis of signal-to-noise ratios (S/N) of 3:1 and 10:1, respectively. The working solutions of standards 1 and 2 for LOD and LOQ were prepared by diluting them sequentially. The intra- and inter-day precision assays, as well as stability tests were performed by following the method applied to the sample analysis for 3 consecutive days. Accuracy of the method (recovery) was assessed by the recovery percentage of iridoids 1 and 2 in the spiked samples. The noni fruit puree samples were spiked with standards at 3 different concentrations (equivalent to 50%, 100% and 150% concentration of 1 and 2 in the samples). The recovery percentage was calculated using the ratio of concentration detected (actual) to those spiked (theoretical). Variation was evaluated by the relative standard deviation (RSD) of triplicate injections in the HPLC experiments.
The iridoid content, inclusive of deacetylasperulosidic acid (DAA) and asperulosidic acid (AA), was determined by HPLC, according to a previously reported method (Deng et al., 2010 b). Other significant secondary metabolites, such as scopoletin, rutin, and quercetin, were also determined by HPLC (Deng et al., 2010 a).
HPLC grade acetonitrile (MeCN), methanol (MeOH), and water (H2O) were obtained from Sigma-Aldrich (St. Louis, Mo., USA). Analytical grade formic acid was purchased from Spectrum Chemical Mfg. Corp. (New Brunswick, N.J., USA). […]

mammalian cells = conditions: cited from earlier work
[4] = Thermal stability of DAA under pasteurization conditions (HPLC); format: physicochemical; conditions: 90° C. at pH 3.3 for one minute
Protocol: as §1
Noni fruit juice is usually subjected to heat pasteurization during commercial processing. Pasteurization is usually employed in noni industry, i.e., heating up to 87.7° C. for several seconds. In this study, the stability of DAA was conducted. DAA was exposed to 90° C. at pH 3.3 for one minute to determine its thermal stability at acidic conditions.

E. coli PQ37 [5] = format: cell-based; conditions: 250 ug mL^-1 iridoid plus 1.25 ug mL^-1 4NQO; blank = 1
Protocol: The SOS-chromotest in E. coli PQ37 was used to determine the potential for iridoids in noni fruit from French Polynesia to prevent primary DNA damage. E. coli PQ37 was incubated at 37° C. in the presence of deacetylasperulosidic acid and asperulosidic acid at a concentration of 250 ug mL^−1 in a 96-well plate. Replicate samples were evaluated. […] Following incubation with the samples, 5-bromo-4-chloro-3-indolyl-β-D-galactopyranoside was added to the wells to detect β-galactosidase enzyme activity, which is induced during SOS repair of damaged DNA. The samples were again incubated for 90 minutes and the absorbances of the samples, blank and positive control were measured at 620 nm with a microplate reader. The β-galactosidase enzyme activity induction factor of each material was calculated by dividing the absorbance of the sample at 620 nm by that of the blank, while also correcting for cell viability.

[6] = 7.81 μg mL^−1, E. coli PQ37, 2 hours
[7] = 15.6 μg mL^−1, E. coli PQ37, 2 hours
[8] = 31.2 μg mL^−1, E. coli PQ37, 2 hours
[9] = 62.5 μg mL^−1, E. coli PQ37, 2 hours
[10] = 125 μg mL^−1, E. coli PQ37, 2 hours
[11] = 250 μg mL^−1, E. coli PQ37, 2 hours
[12] = 500 μg mL^−1, E. coli PQ37, 2 hours
[13] = 1000 μg mL^−1, E. coli PQ37, 2 hours

With `CC(=O)OCC1=C[C@H](O)[C@@H]2C(C(=O)O)=CO[C@@H](O[C@@H]3O[C@H](CO)[C@@H](O)[C@H](O)[C@H]3O)[C@H]12` [AA, asperulosidic acid] as the molecule, how does the reduction in genotoxicity (E. coli PQ37 [1]) read?
Its reduction in genotoxicity is 99.22%.

What about the “induction factor of 4NQO plus iridoid compared with vehicle blank” value (E. coli PQ37 [1]) of the same molecule?
Its value is “no statistical difference from that of the vehicle blank”.

And the Induction factor (E. coli PQ37 [2]; [6])?
Its Induction factor is 1.01 ± 0.05.

And the Induction factor (E. coli PQ37 [2]; [7])?
Its Induction factor is 1.04 ± 0.11.

And the Induction factor (E. coli PQ37 [2]; [8])?
The Induction factor was 0.99 ± 0.06.

What about the Induction factor (E. coli PQ37 [2]; [9]) of the same molecule?
Its Induction factor is 1.04 ± 0.13.

And the Induction factor (E. coli PQ37 [2]; [10])?
Its Induction factor is 1.02 ± 0.08.

What about the Induction factor (E. coli PQ37 [2]; [11]) of the same molecule?
Its Induction factor is 1.11 ± 0.16.

And the Induction factor (E. coli PQ37 [2]; [12])?
The Induction factor was 1.07 ± 0.04.

What about the mean induction factor (E. coli PQ37 [2]) of the same molecule?
The mean induction factor was 1.09.

What about the Induction factor (E. coli PQ37 [2]; [13]) of the same molecule?
The Induction factor was 1.09 ± 0.03.

What about the “induction of SOS repair” value (E. coli PQ37 [2]) of the same molecule?
The value was “did not induce any SOS repair at a frequency significantly above that of the blank”.

And the “Amount detected, Inter-day” value [3]?
The value was 0.281 mg/mL.

And the “Amount detected, Day 1” value [3]?
Its value is 0.276 mg/mL.

What about the “Amount detected, Day 2” value [3] of the same molecule?
The value was 0.281 mg/mL.

And the “Amount detected, Day 3” value [3]?
Its value is 0.287 mg/mL.

And the “genotoxicity in mammalian cells” value (mammalian cells)?
The value was “non-genotoxic”.

Which reduction in genotoxicity (E. coli PQ37 [1]) does the source give for `O=C(O)C1=CO[C@@H](O[C@@H]2O[C@H](CO)[C@@H](O)[C@H](O)[C@H]2O)[C@@H]2C(CO)=C[C@H](O)[C@H]12` [DAA, deacetylasperulosidic acid] here?
Its reduction in genotoxicity is 98.96%.

What about the “induction factor of 4NQO plus iridoid compared with vehicle blank” value (E. coli PQ37 [1]) of the same molecule?
The value was “no statistical difference from that of the vehicle blank”.

What about the Induction factor (E. coli PQ37 [2]; [6]) of the same molecule?
The Induction factor was 0.93 ± 0.13.

What about the Induction factor (E. coli PQ37 [2]; [7]) of the same molecule?
Its Induction factor is 1.03 ± 0.16.

And the Induction factor (E. coli PQ37 [2]; [8])?
The Induction factor was 1.04 ± 0.08.

What about the Induction factor (E. coli PQ37 [2]; [9]) of the same molecule?
Its Induction factor is 1.05 ± 0.07.

What about the Induction factor (E. coli PQ37 [2]; [10]) of the same molecule?
The Induction factor was 1.00 ± 0.08.

And the Induction factor (E. coli PQ37 [2]; [11])?
Its Induction factor is 1.06 ± 0.06.

And the Induction factor (E. coli PQ37 [2]; [12])?
Its Induction factor is 1.03 ± 0.02.

What about the mean induction factor (E. coli PQ37 [2]) of the same molecule?
Its mean induction factor is 1.07.

And the Induction factor (E. coli PQ37 [2]; [13])?
Its Induction factor is 1.07 ± 0.14.

And the “induction of SOS repair” value (E. coli PQ37 [2])?
The value was “did not induce any SOS repair at a frequency significantly above that of the blank”.

And the “Amount detected, Inter-day” value [3]?
The value was 1.297 mg/mL.

What about the “Amount detected, Day 1” value [3] of the same molecule?
The value was 1.308 mg/mL.

And the “Amount detected, Day 2” value [3]?
The value was 1.291 mg/mL.

And the “Amount detected, Day 3” value [3]?
Its value is 1.291 mg/mL.

What about the “thermal stability (DAA content before and after heating)” value [4] of the same molecule?
Its value is “no difference in the DAA contents before and after heating”.

And the “genotoxicity in mammalian cells” value (mammalian cells)?
Its value is “non-genotoxic”.

What about the “β-galactosidase enzyme activity induction factor of iridoid plus 4NQO (mean±standard deviation)” value (E. coli PQ37 [5]) of the same molecule?
The value was 0.98±0.02.
